Counter-ions that a name gives are not always drawn.
Molecular target: T1, human αVβ6 (Homo sapiens, UniProt P06756+P18564)
T1 construct: purchased R & D systems 3817-AV
Test: human αVβ6 HTRF binding assay
Conditions: recombinant human αVβ6 integrin, FITC-conjugated fibronectin
Outline: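 HTRF binding in 20 mM Tris pH 7.4 with 1 mM MgCl2, 1 mM MnCl2, 0.01% Tween 20 and 0.01% BSA. For αVβ6, biotinylated integrin (1.25 nM) and FITC-fibronectin (5 nM) were incubated 1 h at RT, then streptavidin-terbium (0.625 nM) was added overnight in the dark. An SPA-based fibronectin binding format was an alternative.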

T1 sequence (P06756 31-992 limits assumed): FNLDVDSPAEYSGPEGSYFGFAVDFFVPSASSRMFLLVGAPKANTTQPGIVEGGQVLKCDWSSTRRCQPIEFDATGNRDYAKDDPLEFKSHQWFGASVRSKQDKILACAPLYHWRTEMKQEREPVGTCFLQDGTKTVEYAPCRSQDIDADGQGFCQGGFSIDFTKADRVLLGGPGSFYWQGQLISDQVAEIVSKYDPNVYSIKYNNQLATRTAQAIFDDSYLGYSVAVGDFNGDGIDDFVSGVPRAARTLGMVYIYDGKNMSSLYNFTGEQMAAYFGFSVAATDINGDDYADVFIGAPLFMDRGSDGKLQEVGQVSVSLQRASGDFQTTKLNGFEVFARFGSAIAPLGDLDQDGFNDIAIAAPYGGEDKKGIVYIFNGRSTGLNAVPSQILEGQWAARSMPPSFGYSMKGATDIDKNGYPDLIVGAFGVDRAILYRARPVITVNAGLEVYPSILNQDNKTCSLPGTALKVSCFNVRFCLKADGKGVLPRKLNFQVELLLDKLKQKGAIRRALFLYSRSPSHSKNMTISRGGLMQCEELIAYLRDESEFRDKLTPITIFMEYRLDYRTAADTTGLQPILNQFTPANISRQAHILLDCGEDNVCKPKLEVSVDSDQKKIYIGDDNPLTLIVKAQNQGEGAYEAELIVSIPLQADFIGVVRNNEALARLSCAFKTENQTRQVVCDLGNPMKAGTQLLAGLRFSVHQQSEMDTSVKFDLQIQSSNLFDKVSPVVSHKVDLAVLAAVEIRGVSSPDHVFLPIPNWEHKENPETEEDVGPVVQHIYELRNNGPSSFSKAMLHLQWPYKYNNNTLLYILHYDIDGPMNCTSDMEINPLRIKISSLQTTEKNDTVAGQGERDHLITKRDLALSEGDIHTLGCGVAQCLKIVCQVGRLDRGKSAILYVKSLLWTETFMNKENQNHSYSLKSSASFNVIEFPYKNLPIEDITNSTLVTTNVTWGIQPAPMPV
T1 sequence (P18564 22-707 limits assumed): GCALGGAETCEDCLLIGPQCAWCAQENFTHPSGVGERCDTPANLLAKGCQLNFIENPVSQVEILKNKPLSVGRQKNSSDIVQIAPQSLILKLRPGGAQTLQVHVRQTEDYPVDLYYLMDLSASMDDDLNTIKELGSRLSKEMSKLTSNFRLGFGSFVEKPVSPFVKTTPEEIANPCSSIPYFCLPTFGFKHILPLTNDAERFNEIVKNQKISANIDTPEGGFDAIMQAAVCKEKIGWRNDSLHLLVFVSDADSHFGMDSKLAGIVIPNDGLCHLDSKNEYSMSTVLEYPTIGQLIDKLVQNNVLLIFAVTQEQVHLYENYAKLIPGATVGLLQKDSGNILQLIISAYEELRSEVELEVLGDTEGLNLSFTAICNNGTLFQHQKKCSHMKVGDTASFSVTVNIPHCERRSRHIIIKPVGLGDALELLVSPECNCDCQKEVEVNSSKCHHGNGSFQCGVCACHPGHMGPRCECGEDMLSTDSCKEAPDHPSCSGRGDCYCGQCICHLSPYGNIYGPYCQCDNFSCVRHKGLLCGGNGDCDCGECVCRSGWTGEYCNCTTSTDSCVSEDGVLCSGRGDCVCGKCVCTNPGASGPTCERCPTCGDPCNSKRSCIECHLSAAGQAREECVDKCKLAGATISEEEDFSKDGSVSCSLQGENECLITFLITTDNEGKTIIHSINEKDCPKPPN

IC50	Structure (SMILES)
1.9 nM	O=C(O)CC(c1cncc(N2CCOCC2)c1)n1ncc2cc(OCCc3ccc4c(n3)NCCC4)ccc21 (stereo not shown) [Example 124, 3-(5-Morpholinopyridin-3-yl)-3-(5-(2-(5,6,7,8-tetrahydro-1,8-naphthyridin-2-yl)ethoxy)-1H-indazol-1-yl)propanoic acid, 3 TFA]
4.7 nM	CS(=O)(=O)c1cncc(C(CC(=O)O)n2ncc3cc(OCCc4ccc5c(n4)NCCC5)ccc32)c1 (stereo not shown) [Example 125, 3-(5-(Methylsulfonyl)pyridin-3-yl)-3-(5-(2-(5,6,7,8-tetrahydro-1,8-naphthyridin-2-yl)ethoxy)-1H-indazol-1-yl)propanoic acid, 2 TFA]
21 nM	Cn1cnc2cc(C(CC(=O)O)n3ncc4cc(OCCc5ccc6c(n5)NCCC6)ccc43)cnc21 (stereo not shown) [Example 126, 3-(3-Methyl-3H-imidazo[4,5-b]pyridin-6-yl)-3-(5-(2-(5,6,7,8-tetrahydro-1,8-naphthyridin-2-yl)ethoxy)-1H-indazol-1-yl)propanoic acid, 2 TFA]
6.2 nM	O=C(O)CC(c1cncc(N2CCCC2)c1)n1ncc2cc(OCCc3ccc4c(n3)NCCC4)ccc21 (stereo not shown) [Example 127, 3-(5-(Pyrrolidin-1-yl)pyridin-3-yl)-3-(5-(2-(5,6,7,8-tetrahydro-1,8-naphthyridin-2-yl)ethoxy)-1H-indazol-1-yl)propanoic acid, 3 TFA]
25 nM	O=C(O)C[C@H](c1cnc2nccnc2c1)n1ncc2cc(OCCc3ccc4c(n3)NCCC4)ccc21 [Example 128, (R)-3-(Pyrido[2,3-b]pyrazin-7-yl)-3-(5-(2-(5,6,7,8-tetrahydro-1,8-naphthyridin-2-yl)ethoxy)-1H-indazol-1-yl)propanoic acid]
480 nM	O=C(O)C[C@@H](c1cnc2nccnc2c1)n1ncc2cc(OCCc3ccc4c(n3)NCCC4)ccc21 [Example 129, (S)-3-(Pyrido[2,3-b]pyrazin-7-yl)-3-(5-(2-(5,6,7,8-tetrahydro-1,8-naphthyridin-2-yl)ethoxy)-1H-indazol-1-yl)propanoic acid]
57 nM	O=C(O)CC(c1ccn2cnnc2c1)n1ncc2cc(OCCc3ccc4c(n3)NCCC4)ccc21 (stereo not shown) [Example 130, 3-([1,2,4]Triazolo[4,3-a]pyridin-7-yl)-3-(5-(2-(5,6,7,8-tetrahydro-1,8-naphthyridin-2-yl)ethoxy)-1H-indazol-1-yl)propanoic acid]
30 nM	NCc1cncc(C(CC(=O)O)n2ncc3cc(OCCc4ccc5c(n4)NCCC5)ccc32)c1 (stereo not shown) [Example 131, 3-(5-(Aminomethyl)pyridin-3-yl)-3-(5-(2-(5,6,7,8-tetrahydro-1,8-naphthyridin-2-yl)ethoxy)-1H-indazol-1-yl)propanoic acid]
22 nM	O=C(O)CC(c1cnc2c(c1)OCO2)n1ncc2cc(OCCc3ccc4c(n3)NCCC4)ccc21 (stereo not shown) [Example 132, 3-([1,3]Dioxolo[4,5-b]pyridin-6-yl)-3-(5-(2-(5,6,7,8-tetrahydro-1,8-naphthyridin-2-yl)ethoxy)-1H-indazol-1-yl)propanoic acid]

Continued, compound first:

Structure (SMILES)	IC50
O=C(O)CC(c1ccc2cccnc2n1)n1ncc2cc(OCCc3ccc4c(n3)NCCC4)ccc21 (stereo not shown) [Example 96, 3-(1,8-Naphthyridin-2-yl)-3-(5-(2-(5,6,7,8-tetrahydro-1,8-naphthyridin-2-yl)ethoxy)-1H-indazol-1-yl)propanoic acid, 2 TFA]	7.2 nM
O=C(N[C@@H](Cn1cc2cc(OCc3ccc4c(n3)NCCC4)ccc2n1)C(=O)O)OCc1ccccc1 [Example 98, (S)-2-(((Benzyloxy)carbonyl)amino)-3-(5-((5,6,7,8-tetrahydro-1,8-naphthyridin-2-yl)methoxy)-2H-indazol-2-yl)propanoic acid]	160 nM
O=C(O)C[C@H](c1cncc(CO)c1)n1ncc2cc(OCCc3ccc4c(n3)NCCC4)ccc21 [Example 99, (R)-3-(5-(Hydroxymethyl)pyridin-3-yl)-3-(5-(2-(5,6,7,8-tetrahydro-1,8-naphthyridin-2-yl)ethoxy)-1H-indazol-1-yl)propanoic acid]	340 nM
O=C(O)CC(c1cnc2c(cnn2C2CCCCO2)c1)n1ncc2cc(OCCc3ccc4c(n3)NCCC4)ccc21 (stereo not shown) [Example 103, 3-(5-(2-(5,6,7,8-tetrahydro-1,8-naphthyridin-2-yl)ethoxy)-1H-indazol-1-yl)-3-(1-(tetrahydro-2H-pyran-2-yl)pyrazolo[3,4-b]pyridin-5-yl)propanoic acid, TFA]	5.4 nM
CN(C)Cc1cncc(C(CC(=O)O)n2ncc3cc(OCCc4ccc5c(n4)NCCC5)ccc32)c1 (stereo not shown) [Example 105, 3-(5-((Dimethylamino)methyl)pyridin-3-yl)-3-(5-(2-(5,6,7,8-tetrahydro-1,8-naphthyridin-2-yl)ethoxy)-1H-indazol-1-yl)propanoic acid]	10 nM
CCOc1ncc([C@@H](CC(=O)O)n2ncc3cc(OCCc4ccc5c(n4)NCCC5)ccc32)cn1 [Example 108, (R)-3-(2-Ethoxypyrimidin-5-yl)-3-(5-(2-(5,6,7,8-tetrahydro-1,8-naphthyridin-2-yl)ethoxy)-1H-indazol-1-yl) propanoic acid, TFA]	390 nM
O=C(O)CC(c1ccc2ncsc2c1)n1ncc2cc(OCCc3ccc4c(n3)NCCC4)ccc21 (stereo not shown) [Example 110, 3-(Benzo[d]thiazol-6-yl)-3-(5-(2-(5,6,7,8-tetrahydro-1,8-naphthyridin-2-yl)ethoxy)-1H-indazol-1-yl)propanoic acid, TFA]	19 nM
O=C(O)CC(c1cnc(N2CCOCC2)nc1)n1ncc2cc(OCCc3ccc4c(n3)NCCC4)ccc21 (stereo not shown) [Example 111, 3-(2-Morpholinopyrimidin-5-yl)-3-(5-(2-(5,6,7,8-tetrahydro-1,8-naphthyridin-2-yl)ethoxy)-1H-indazol-1-yl)propanoic acid, TFA]	24 nM
COc1ccc(C(CC(=O)O)n2ncc3cc(OCCc4ccc5c(n4)NCCC5)ccc32)nn1 (stereo not shown) [Example 114, 3-(6-Methoxypyridazin-3-yl)-3-(5-(2-(5,6,7,8-tetrahydro-1,8-naphthyridin-2-yl)ethoxy)-1H-indazol-1-yl)propanoic acid, TFA]	2.6 nM
O=C(O)CC(c1ccc2nncn2c1)n1ncc2cc(OCCc3ccc4c(n3)NCCC4)ccc21 (stereo not shown) [Example 115, 3-([1,2,4]Triazolo[4,3-a]pyridin-6-yl)-3-(5-(2-(5,6,7,8-tetrahydro-1,8-naphthyridin-2-yl)ethoxy)-1H-indazol-1-yl)propanoic acid]	60 nM
O=C(O)CC(c1ccc2c(n1)NCCC2)n1ncc2cc(OCCc3ccc4c(n3)NCCC4)ccc21 (stereo not shown) [Example 116, 3-(5,6,7,8-Tetrahydro-1,8-naphthyridin-2-yl)-3-(5-(2-(5,6,7,8-tetrahydro-1,8-naphthyridin-2-yl)ethoxy)-1H-indazol-1-yl)propanoic acid, 2 TFA]	5.9 nM
CCN1CCn2c(C(CC(=O)O)n3ncc4cc(OCCc5ccc6c(n5)NCCC6)ccc43)cnc2C1 (stereo not shown) [Example 122, 3-(7-Ethyl-5,6,7,8-tetrahydroimidazo[1,2-a]pyrazin-3-yl)-3-(5-(2-(5,6,7,8-tetrahydro-1,8-naphthyridin-2-yl)ethoxy)-1H-indazol-1-yl)propanoic acid]	14 nM
CC(C)(C)OC(=O)NCc1cncc(C(CC(=O)O)n2ncc3cc(OCCc4ccc5c(n4)NCCC5)ccc32)c1 (stereo not shown) [Example 123, 3-(5-(((tert-Butoxycarbonyl)amino)methyl)pyridin-3-yl)-3-(5-(2-(5,6,7,8-tetrahydro-1,8-naphthyridin-2-yl)ethoxy)-1H-indazol-1-yl)propanoic acid]	5.5 nM

— US10745384B2, “Indazole derivatives as αv integrin antagonists” (BRISTOL-MYERS SQUIBB COMPANY, priority 2016, dated 2020)
